The values that follow come from patent publication US6057359A, “Spontaneously dispersible concentrates comprising esters of baccatin-III compounds having antitumor and antiviral activity” (Marigen S.A., priority 1997, dated 2000).

Series [1] concerns Py6 cells (Virus transformed 3T3 mouse-fibroblasts). Kind of series: Test of cell toxicity / cytotoxicity of MARIGENOL concentrates on Py6 cells (plaque assay, serial dilution). It is filed as cell-based. The method, then:
A biological assay system using microtiter plates and serial dilutions has been developed. Batches of 10^4 tumour cells per ml were set up in culture medium RPMI 1640 and inactivated with 10% of fetal calf serum (GIBCO); they are spread at a density low enough to enable them to grow during the assay, in non-confluent monolayers. Samples are added after 6 to 24 hours, with 100 μl per row, to which 100 μl of medium are added in the first well. Half of this mixture is withdrawn, transferred into the next well and again treated with 100 μl of medium, etc.
[…] They are then stained and fixed using 0.1% crystal violet (Fluka, Buchs) in a solution of 70% of methanol, 1% of formaldehyde and 29% of water. The samples are evaluated under the microscope, magnification 300×. The greatest cytotoxic dilution is determined. The samples can also be evaluated quantitatively by means of scanning and absorption measurement in a spectrophotometer.
N.B.: On the subject of the eternalized Py6-cells cf.: "Biochemistry", Coordinating Editor Geoffrey L. Zubay, Addison-Wesley Publishing Company, 1983, p.1079.

In a further series the test system is LEUKEMIA K 562. Kind of series: Vitality/proliferation test (Tritium), leukemia K 562. The following applies: controls 50'037 cpm. It is filed as cell-based, human. From the text:
(§1) 4.0 Comparative assays with human tumor cell lines
(§2) VITALITY TEST/1%-MARIGENOL-CONCENTRATE
(§3) 1 × 10^4 cells per well
(§4) Proliferation test (Tritium: 1 μCi/well H^+)

A further series concerns LEUKEMIA DAUDI-LINE. Kind of series: Vitality/proliferation test (Tritium), leukemia Daudi-line. It is filed as cell-based, human. The following applies: controls 23'090 cpm.
Excerpt: as §1, §2, §3, §4

For series [2] the following is noted: cited from earlier work.

Consider `CC(=O)O[C@H]1C(=O)[C@@]2(C)[C@H]([C@H](OC(=O)c3ccccc3)[C@]3(O)C[C@H](O)C(C)=C1C3(C)C)[C@]1(OC(C)=O)CO[C@@H]1C[C@@H]2O` [BACCATIN III-A.S., Baccatin-III], for which the “in dilution active up to 1: (calculated on active substance content, A.S.)” value in series [1] (24 h exposure) is reported as 12.8 Mio; in series [1] (48 h exposure), 12.8 Mio; in series [1] (72 h exposure), 100 Mio. The “in dilution active up to 1: (microemulsion ME 1:100)” value in series [1] (72 h exposure, dilution of ME 1:100, given in Mio.) is 1 Mio. For the same molecule, the Proliferation test % was determined as 1.3% with LEUKEMIA K 562 (10^-3); 1.5% in the series on LEUKEMIA K 562 (10^-4); 6.3% in the series with LEUKEMIA K 562 (10^-5); 3.0% in the series on LEUKEMIA DAUDI-LINE (10^-3); 3.4% with LEUKEMIA DAUDI-LINE (10^-4); 61.4% in the series with LEUKEMIA DAUDI-LINE (10^-5). The Proliferation test cpm in the series with LEUKEMIA K 562 (10^-3) is on record as 680 cpm; with LEUKEMIA K 562 (10^-4), 757 cpm; with LEUKEMIA DAUDI-LINE (10^-3) it was 708 cpm; in the series with LEUKEMIA DAUDI-LINE (10^-4), 795 cpm. Further, the solubility in water entry in series [2] was “very low”.
